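All cell lines were grown in 96-well plates and treated with compound for 48 hours. The concentration for full growth arrest is given as TGI.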
What was measured:
Experiment in all cases: NCI tumour cell line growth inhibition, 48 h
COLO 205 colon = tested on: COLO 205 colon
HCT-15 colon = tested on: HCT-15 colon
HOP-92 NSCLC = tested on: HOP-92 NSCLC
IGROV1 ovarian = tested on: IGROV1 ovarian
K-562 leukemia = tested on: K-562 leukemia
MCF7 breast = tested on: MCF7 breast
MDA-MB-435 = tested on: MDA-MB-435
OVCAR-3 ovarian = tested on: OVCAR-3 ovarian
RXF 393 renal = tested on: RXF 393 renal
SK-OV-3 ovarian = tested on: SK-OV-3 ovarian
SN12C renal = tested on: SN12C renal
SW-620 colon = tested on: SW-620 colon
T-47D breast = tested on: T-47D breast
TK-10 renal = tested on: TK-10 renal
UO-31 renal = tested on: UO-31 renal

Row | SMILES | TGI (COLO 205 colon) | TGI (HCT-15 colon) | TGI (HOP-92 NSCLC) | TGI (IGROV1 ovarian) | TGI (K-562 leukemia) | TGI (MCF7 breast) | TGI (MDA-MB-435) | TGI (OVCAR-3 ovarian) | TGI (RXF 393 renal) | TGI (SK-OV-3 ovarian) | TGI (SN12C renal) | TGI (SW-620 colon) | TGI (T-47D breast) | TGI (TK-10 renal) | TGI (UO-31 renal)
1 | CCOC(=O)c1sc2nc(SC)nc3c2c1N=CN3c1ccc(Br)cc1 | > 100 µM | > 100 µM | > 100 µM | > 100 µM | > 100 µM | > 100 µM | > 100 µM | > 100 µM | > 100 µM | > 100 µM | > 100 µM | > 100 µM | > 100 µM | > 100 µM | > 100 µM
2 | O=c1oc2ccccc2c(O)c1C(c1cc(OCc2ccccc2)cc(OCc2ccccc2)c1)c1c(O)c2ccccc2oc1=O | 33.8 µM | 11.8 µM | > 28.3 µM | 51.2 µM | > 25.4 µM | 48.5 µM | 31.3 µM | 35 µM | > 52 µM | 20.1 µM | 21.3 µM | > 43.8 µM | 38.1 µM | 33.4 µM | 19.9 µM
3 | N#CC1=C(N)OC2=C(CSc3ccccc32)C1c1ccc(Br)cc1 (stereo not given) | 10.8 µM | 24.5 µM | 21.5 µM | 25.8 µM | 11.3 µM | 13.8 µM | 7.82 µM | 21.6 µM | 16.3 µM | 27 µM | 20.4 µM | 23.8 µM | 25.8 µM | 31.2 µM | 26.7 µM
4 | Nc1nc(Cl)cc(NCC2(CO)CC(CCc3ccccc3)C2)n1 (stereo not given) | > 100 µM | > 100 µM | > 100 µM | > 100 µM | > 100 µM | > 100 µM | > 100 µM | > 100 µM | > 100 µM | > 100 µM | > 100 µM | > 100 µM | > 29.1 µM | > 100 µM | > 100 µM
5 | Clc1nc(Cl)nc(NC23CC4CC(CC(C4)C2)C3)n1 | 35.5 µM | 31.7 µM | 35.5 µM | 28.3 µM | 33.7 µM | > 64.3 µM | 34.4 µM | 37.7 µM | 32.1 µM | > 57.1 µM | 35.2 µM | 31.5 µM | 42.6 µM | 32.6 µM | 23.5 µM
6 | Cc1ccc(N=Nc2c3c(c(O)c4ccccc24)CCC(C)(C)O3)cc1 | 62.8 µM | 67.3 µM | > 100 µM | > 100 µM | > 100 µM | 27.2 µM | 31.7 µM | 62.4 µM | > 100 µM | > 100 µM | 28.5 µM | > 100 µM | 60.3 µM | 88.5 µM | 73.3 µM
7 | COc1ccc(Nc2[nH]c(C(C)=O)c(N)c2C(=S)Nc2ccccc2)cc1 | 48.1 µM | > 100 µM | > 100 µM | > 100 µM | > 100 µM | 68.6 µM | > 100 µM | > 100 µM | 77.7 µM | > 100 µM | > 100 µM | > 100 µM | > 100 µM | > 100 µM | > 100 µM
8 | COC(=O)C1(Cc2ccccc2)Cc2cc3c(cc2C1=O)CCC3 (stereo not given) | 39.5 µM | > 100 µM | 42.3 µM | > 100 µM | 81.8 µM | 42.9 µM | 36.9 µM | > 100 µM | > 100 µM | > 100 µM | > 100 µM | > 100 µM | 66.6 µM | > 100 µM | > 100 µM
9 | Cc1ccc2c(c1C)CC1(Cc3c(ccc4c3CCC4)C1=O)C2=O (stereo not given) | > 100 µM | > 100 µM | > 100 µM | > 100 µM | > 100 µM | > 100 µM | > 100 µM | > 100 µM | > 100 µM | > 100 µM | > 100 µM | > 100 µM | > 100 µM | > 100 µM | > 100 µM
10 | COc1ccc2c(c1)c1c(n2CCN2CCOCC2)-c2ccccc2CC1 | 30.8 µM | > 100 µM | > 100 µM | > 100 µM | 40.2 µM | > 100 µM | > 100 µM | > 100 µM | > 100 µM | > 100 µM | 69.8 µM | > 100 µM | > 100 µM | > 100 µM | > 100 µM

Reference: PubChem BioAssay (NCI)
